Reference: ChEMBL document CHEMBL5143586, “Advances in the Development of Nonpeptide Small Molecules Targeting Ghrelin Receptor” (J Med Chem, 2022)

Key:
[1] = Binding affinity at mouse pancreas GHS-R1a assessed as inhibition constant; type: tissue-based
[2] = biological target: T1, Growth hormone secretagogue receptor type 1 (Homo sapiens, UniProt Q92847); test: Antagonist activity at GHS-R1a (unknown origin) relative to control; type: functional
[3] = biological target: T1, Growth hormone secretagogue receptor type 1; test: Inverse agonist activity at GHS-R1a (unknown origin) relative to control; type: functional
[4] = biological target: T1, Growth hormone secretagogue receptor type 1; test: Binding affinity at GHS-R1a (unknown origin) assessed as inhibition constant

T1 sequence (Q92847 whole entry): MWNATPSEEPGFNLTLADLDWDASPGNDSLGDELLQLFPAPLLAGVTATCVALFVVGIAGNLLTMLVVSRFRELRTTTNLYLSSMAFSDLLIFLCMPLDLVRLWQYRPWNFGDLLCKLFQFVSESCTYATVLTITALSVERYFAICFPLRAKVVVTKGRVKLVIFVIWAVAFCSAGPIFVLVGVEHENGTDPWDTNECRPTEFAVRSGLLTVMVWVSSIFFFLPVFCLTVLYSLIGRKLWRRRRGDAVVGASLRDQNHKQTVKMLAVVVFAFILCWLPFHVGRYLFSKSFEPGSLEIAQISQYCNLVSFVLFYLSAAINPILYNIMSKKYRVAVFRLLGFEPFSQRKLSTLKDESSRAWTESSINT

Compound | Ki [1] [nM] | Emax [3] [%] | other results
COc1ccc(Cn2c([C@@H](Cc3c[nH]c4ccccc34)NC(=O)CO)nnc2[C@@H](Cc2c[nH]c3ccccc23)NC(=O)[C@H](CC(C)C)NC(=O)[C@H](CC(C)C)NC(C)=O)cc1 |  |  | Emax [2]: 0%
CC(C)C[C@H](NC(=O)[C@H](CC(C)C)NC(=O)[C@@H](Cc1c[nH]c2ccccc12)NC(=O)[C@H](Cc1ccccc1)NC(=O)[C@@H](Cc1c[nH]c2ccccc12)NC(=O)[C@@H](N)CCCCN)C(N)=O |  | -55 | 
COc1ccc(Cn2c([C@@H](Cc3c[nH]c4ccccc34)NC(=O)[C@H](CC(C)C)NC(=O)[C@H](CC(C)C)NC(C)=O)nnc2[C@@H](Cc2c[nH]c3ccccc23)NC(=O)[C@@H](N)CCCCN)cc1 |  | -37 | Ki [4]: 3 nM

Now from value to compound, other results behind:

Ki [1] [nM] | Emax [3] [%] | Compound | other results
4 |  | Cc1ccccc1-c1nc2ccc(-c3ccc(Cl)cc3)cc2c(=O)n1C[C@@H]1CCCN(CCO[11CH3])C1 | 
7 |  | C[C@H]1CN(C(=O)c2ccc(-c3ccc(O[11CH3])cc3)cc2)CCN1C(=O)c1ccc2cc[nH]c2c1 | 
16 |  | Cc1ccccc1-c1nc2ccc(-c3ccc(Cl)cc3)cc2c(=O)n1C[C@@H]1CCCN(CC[18F])C1 | 
